Results on one molecule are retold here after patent US20130189320A1, “METHOD OF PREPARING A CONTROLLED RELEASE PARTICLE OF SOY ISOFLAVONE WITH BIODEGRADABLE POLYMER USING A SUPERCRITICAL FLUID EXTRACTION OF EMULSION (SFEE) PROCESS” (Nano and Advanced Materials Institute Limited, priority 2012, published 2013).

Structures are written as SMILES.

Series [1] can be described thus: particle morphology and size under scanning electron microscope (SEM). The class given is physicochemical. The text has this:
It appears from the SEM images that the particle of genistein with PLGA has a nearly spherical shape and an average size of less than 1 μm. In comparison, the raw genistein is rectangular rod-shaped and the width (i.e., the shortest side of the rectangular rod-shaped raw genistein) is about 10 μm. PLGA matrix can protect genistein from degradation in the gastrointestinal tract and also from first-pass metabolism in the liver. Meanwhile, the nearly spherical shape of the genistein particle with the size less than 1 μm has a larger surface area to favor the interaction between the particle and the target cell in order to increase the chance of localizing on the target cell and delivering the genistein encapsulated in the particle in a controlled release manner.

A short description of series [2]: in vitro drug release study, aqueous medium containing 1% Tween 80. In kind it is physicochemical. Conditions: 24-hour period, FIG. 3. The text has this:
In the drug release study, an aqueous medium containing 1% Tween 80 is used to re-suspend the genistein-containing PLGA particles or the raw genistein. The cumulative release percentage of the encapsulated genistein from the PLGA coated particles and that of the raw genistein without PLGA for a 24-hour period is shown in FIG. 3. […] That may be due to the presence of free and weakly bound drug on the surface of particulate carriers. […] In FIG. 3, the encapsulated genistein from the PLGA coated particles has a cumulative release percentage of below 20% within the first 24 hours while the raw genistein has over 40% of release over the 24-hour period. From this in vitro study, it could be said that the extended release profile of genistein-containing PLGA particles can increase the chance of genistein to be utilized in human body, which further leads to an improved bioavailability. The slower the release rate is, more available active ingredients are released to a specific site of action.

On to `O=c1c(-c2ccc(O)cc2)coc2cc(O)cc(O)c12` [raw genistein, genistein], for which, in series [1], the “width (shortest side of rectangular rod-shaped particle)” value is recorded as “about 10 μm”. Also, in series [2], the “cumulative release percentage of genistein” value is reported as “over 40%”.
